In data set [1] the test system is blood-brain barrier (BBB). The data set is described as follows: Multiple time regression (MTR) analysis, blood-to-brain influx. In kind it is in vivo, ICR-CD-1 mice. The note with it: whole brain, ± 65% confidence limits.
Description: Shortly, 200 μl of the radioiodinated CPP solution (30000 cpm/μl) was injected into the right jugular externalis vein of anesthetized ICR-CD-1 mice, which were then decapitated at 1, 3, 5, 10, 12.5 and 15 min post injection, with first and last time points performed in duplicate, after which brains were collected and measured for radioactivity using a gamma counter (Wallac Wizard 1470, Perkin Elmer). Shortly before decapitation, blood was collected from the left carotid artery, which was centrifuged (10000 g, 15 min at 21°C) in order to measure the radioactivity of blood and serum. Dermorphin and radioiodinated BSA were used as positive and negative control, respectively. The blood-to-brain entry during the experimental period of 15 min was evaluated by plotting the ratio of brain (Am(T)) and serum activity (Cp(T)), corrected for the brain weight and serum volume, respectively, versus the exposure time (Θ), expressing the theoretical steady state serum level of the iodinated peptide at a given serum concentration [37, 73]. The exposure time is calculated as the integral of the arterial serum radioactivity over time divided by the radioactivity at time t. The integral is calculated through the trapezoidal rule of the log-transformed data [73]. In the linear part of the curve, assuming a two-compartmental BBB model, data can be fitted using a linear model from which the unidirectional influx rate (Kin), also referred to as unidirectional blood to brain clearance K1 [46], and the initial brain distribution volume (Vi) can be determined using the following equation according to Gjedde and Patlak [37–40]: Am(T)/Cp(T)=Abrain(T)/Aserum(T)=Kin⋅Θ+Vi with Θ = ∫0TCp(t) ⋅ dt/Cp(T) (1)
Data set [2] concerns brain parenchyma and capillaries. The data set is described as follows: Capillary depletion method: brain parenchyma/capillary distribution. Format: in vivo, ICR-CD-1 mice. The note with it: capillary depletion, 10 min after IV injection of radiolabeled peptide (200 μl, 10000 cpm/μl), brain perfused with lactated Ringer's buffer, two ICR-CD-1 mice, gamma counter. The procedure: The capillary depletion method was used to evaluate the distribution of the peptide between the brain parenchyma and capillaries. In summary (see Materials and Methods in [45]), 200 μl of a radiolabeled peptide solution (10000 cpm/μl) was injected in the jugular externalis vein of two anesthetized ICR-CD-1 mice. Ten minutes after IV injection, mice were decapitated and brains were collected and measured for radioactivity. […] The resulting homogenate was weighed and centrifuged at 5400 g for 30 min at 4°C, resulting in a pellet, i.e. capillaries, and supernatant, i.e. parenchyma and fat tissue, which were weighed and measured in the gamma counter. […] Compartmental distribution was calculated as follows: Fractioncapillaries or parenchyma (%)=[…] or parenchyma/[…]×100 (4)

The subject of data set [3] is blood-brain barrier (BBB). The data set can be described thus: Brain-to-blood transport (efflux) after intracerebroventricular injection. The note with it: ICR-CD-1 mice. The procedure:
Female, ICR-CD-1 mice (Harlan Laboratories, Venray, The Netherlands), aged 7 to 10 weeks and weighing 28–36 g, were used during the in vivo BBB transport experiments. All animal experiments were performed in accordance with the Ethical Committee principles of laboratory animal welfare. The protocol was approved by the Ethical Committee of the Faculty of Veterinary Science of Ghent University (Permit Numbers: 2009–052 and 2014–128). Prior to experiments, mice were anesthetized by intraperitoneal injection of a 40% urethane solution (3 g/kg) (Sigma-Aldrich, Diegem, Belgium).
For evaluation of the efflux of the peptides out of the brain, 1 μl of a radioiodinated peptide solution (25000 cpm/μl) was injected in the lateral ventricle of anesthetized ICR-CD-1 mice at a speed of 360 μl/h for 10 s using a syringe pump (KDS100, KR analytical, Cheshire, UK). […] The brain half-time disappearance (t1/2,brain) was calculated from the linear regression of the natural logarithm of the residual radioactivity in brain versus time as follows: t1/2,brain=ln(2)/kout (5) with kout defined as the efflux rate constant calculated as the absolute value of the slope of the linear regression, applying first order kinetics. An extensive description of the protocol can be found elsewhere.

A short description of data set [4]: In vitro metabolic stability in mouse serum. In kind it is in vitro ADME. The protocol: (§1) Prior to use, the protein content of each homogenate was determined using the Pierce Modified Lowry Protein Assay method (Thermo Scientific) to generate a stock solution with a protein concentration of 0.6 mg/ml by dilution with Krebs-Henseleit buffer (pH 7.4, Sigma-Aldrich). […] After sampling, enzymatic activity was terminated by additional heat inactivation at 95°C for 5 min, followed by cooling the samples in an ice bath for 30 min. […] Therefore, a solid phase extraction (SPE) protocol using an Oasis® WCX μelution plate (Waters, Zellik, Belgium) was used prior to HPLC-UV analysis. In the Supporting Information, the protocol of the SPE extraction procedure is described (S1 Text). Blank control solutions were prepared as described above, but without adding the peptide. To confirm chemical stability and mass balance, control reference solutions without tissue homogenate or with a prior heat inactivation were analyzed as well. The HPLC-UV system consisted of a Waters Alliance 2695 separation module and a Waters 2996 photodiode array (PDA) detector (detection from 190-400 nm, quantification at 215 nm), fitted with Empower 2 software for data handling (Waters). […] Appropriate gradients for separation of the peptides and their metabolites were created by mixtures of water (0.1% trifluoroacetic acid m/V) and acetonitrile (0.1% trifluoroacetic acid m/V).

Data set [5] is described as follows: In vitro metabolic stability in mouse brain homogenate. In kind it is in vitro ADME. The note with it: mouse brain homogenate 0.6 mg/ml protein (500 μl, 300 μg protein) + Krebs-Henseleit buffer pH 7.4, 0.1 mg/ml peptide, 37°C, 750 rpm, 0-120 min, HPLC-UV 215 nm. The procedure:
as §1

Data set [6] can be described thus: In vitro metabolic stability in mouse kidney homogenate. In kind it is in vitro ADME. The note with it: mouse kidney homogenate 0.6 mg/ml protein (500 μl, 300 μg protein) + Krebs-Henseleit buffer pH 7.4, 0.1 mg/ml peptide, 37°C, 750 rpm, 0-120 min, HPLC-UV 215 nm. The protocol:
as §1

A short description of data set [7]: In vitro metabolic stability in mouse liver homogenate. The note with it: mouse liver homogenate 0.6 mg/ml protein (500 μl, 300 μg protein) + Krebs-Henseleit buffer pH 7.4, 0.1 mg/ml peptide, 37°C, 750 rpm, 0-120 min, HPLC-UV 215 nm. Format: in vitro ADME. The procedure:
as §1

Data set [8] concerns blood-brain barrier (BBB). The data set is described as follows: Classification of peptides according to their BBB influx. The note with it: classification method of ref [61] applied to the measured influx. From the text: This peptide is derived from the murine vascular endothelial (VE)-cadherin, located in the adherens junctions between the vascular endothelial cells, and constitutes the 13 cytosolic amino acids closest to the membrane and five amino acids from the C-terminus of the transmembrane region (615–632).

For data set [9], the system named is cellular uptake. On the set-up: method as in Stalmans et al.[1]. The note with it: cell-penetrating (CP-) response, quantitative expression of cellular influx; ref Stalmans et al.[1]; cited from earlier work.

Several values for one entry are separate records, joined by “and”; a condition that tells them apart may be missing. Equal entries are not always repeated.

Regarding “AGYLLGKINLKPLAALAKKIL-NH2 [TP10-2, transportan analog differing one amino acid from TP10]”, the “Kin (unidirectional influx rate), linear Gjedde-Patlak model” value in [1] (125I-radioiodinated peptide, IV jugular vein 200 μl (30000 cpm/μl), anesthetized female ICR-CD-1 mice, 1-15 min, brain/serum radioactivity (gamma counter) vs exposure time, pVEC, SynB3, TP10: two experiments fitted together) was 0.36 µL/g/min and 0.36 ± 0.06 µL/g/min. Further, the “Vi (initial brain distribution volume), linear Gjedde-Patlak model” value in data set [1] (125I-radioiodinated, IV, ICR-CD-1 mice, MTR 1-15 min) worked out at 10.07 ± 1.00 µL/g. Moreover, the Parenchymal fraction in [2] is 84%. Further, the “kout (efflux transfer constant)” value in data set [3] (1 μl radioiodinated peptide (25000 cpm/μl) in lateral ventricle, 1-15 min, slope of ln(brain activity) vs time) is 0.06 ± 0.01 min⁻¹. The “t1/2,brain (half-time disappearance)” value in data set [3] (ln(2)/kout after intracerebroventricular injection) was 0.183 h. Besides, the “Half-life, serum” value in data set [4] (mouse serum 500 μl + 400 μl Krebs-Henseleit buffer pH 7.4 + 100 μl 1 mg/ml peptide, 37°C, 750 rpm, sampling 0-120 min plus early points, HPLC-UV 215 nm, t1/2 = -ln(2)/slope) was found to be 3.823 h. In data set [4] (mouse serum in Krebs-Henseleit buffer pH 7.4, 37°C, SPE then HPLC-UV), the “Serum half-life” value is 4 h. Besides, in data set [5], the “Half-life, brain” value was 1.705 h. In addition, the “Half-life, kidney” value in data set [6] worked out at 0.188 h. Also, the “Half-life, liver” value in data set [7] is 1.97 h. Further, the BBB influx class result in data set [8] was “class 2”. Further, the CP-response in data set [9] is 0.749.

The values are drawn from publication PMC4605843, “Cell-Penetrating Peptides Selectively Cross the Blood-Brain Barrier In Vivo” (PLoS ONE, 2015).
